Reference: PubChem BioAssay AID2060603 (Molecular Pharmacology Branch, DTP, NCI, 2025)
pIC50: −log10 of the molar value. Values belong to the compound of their own block, whether it stands above or below them.

System: 422866-222-R5-J1-PDC spheroid viability
Test: Anticancer human tumor 422866-222-R5-J1-PDC patient-derived pancreatic adenocarcinoma cell line growth inhibition [CLK]
Conditions: spheroids with HUVEC and MSC; for pIC50: curve of first compound; for viability, T/C: stronger effect = lower value
How it was run: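 Patient-derived tumor cells grown as complex spheroids with HUVEC endothelial cells and mesenchymal stem cells, treated with drug combinations. Concentrations descend in half-log steps from near clinical Cmax, or from 10 microM if Cmax unknown.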

[1] = second compound 0.0316 µM, first compound 0.0316 µM
[2] = second compound 0.0316 µM, first compound 0.1 µM
[3] = second compound 0.0316 µM, first compound 0.316 µM
[4] = second compound 0.0316 µM, first compound 1 µM
[5] = second compound 0.0316 µM, first compound 3.16 µM
[6] = second compound 0.0316 µM, first compound 10 µM
[7] = second compound 0.1 µM, first compound 0.0316 µM
[8] = second compound 0.1 µM, first compound 0.1 µM
[9] = second compound 0.1 µM, first compound 0.316 µM
[10] = second compound 0.1 µM, first compound 1 µM
[11] = second compound 0.1 µM, first compound 3.16 µM
[12] = second compound 0.1 µM, first compound 10 µM
[13] = second compound 0.316 µM, first compound 0.0316 µM
[14] = second compound 0.316 µM, first compound 0.1 µM
[15] = second compound 0.316 µM, first compound 0.316 µM
[16] = second compound 0.316 µM, first compound 1 µM
[17] = second compound 0.316 µM, first compound 3.16 µM
[18] = second compound 0.316 µM, first compound 10 µM
[19] = second compound 1 µM, first compound 0.0316 µM
[20] = second compound 1 µM, first compound 0.1 µM
[21] = second compound 1 µM, first compound 0.316 µM
[22] = second compound 1 µM, first compound 1 µM
[23] = second compound 1 µM, first compound 3.16 µM
[24] = second compound 1 µM, first compound 10 µM
[25] = second compound 3.16 µM, first compound 0.0316 µM
[26] = second compound 3.16 µM, first compound 0.1 µM
[27] = second compound 3.16 µM, first compound 0.316 µM
[28] = second compound 3.16 µM, first compound 1 µM
[29] = second compound 3.16 µM, first compound 3.16 µM
[30] = second compound 3.16 µM, first compound 10 µM
[31] = second compound 10 µM, first compound 0.0316 µM
[32] = second compound 10 µM, first compound 0.1 µM
[33] = second compound 10 µM, first compound 0.316 µM
[34] = second compound 10 µM, first compound 1 µM
[35] = second compound 10 µM, first compound 3.16 µM
[36] = second compound 10 µM, first compound 10 µM
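Further: spheroids exposed to agents for seven days before readout.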

pIC50 (second compound 0.0316 µM): < 5.00
pIC50 (second compound 0.1 µM): < 5.00
pIC50 (second compound 0.316 µM): < 5.00
pIC50 (second compound 1 µM): < 5.00
pIC50 (second compound 3.16 µM): < 5.00
pIC50 (second compound 10 µM): < 5.00
Structure (SMILES): COC1C=CCC(C)C(C)S(=O)(=O)NC(=O)c2ccc3c(c2)N(CC2CCC21)CC1(CCCc2cc(Cl)ccc21)CO3 (stereo not drawn) + CNC(=O)c1ccc(Nc2nc(OC3CCCC3)c3c(-c4ccc5nc(C)oc5c4)c[nH]c3n2)c(OC)c1
viability, T/C [1]: 118%
viability, T/C [2]: 112%
viability, T/C [3]: 114%
viability, T/C [4]: 96.4%
viability, T/C [5]: 120%
viability, T/C [6]: 84.6%
viability, T/C [7]: 101%
viability, T/C [8]: 92.9%
viability, T/C [9]: 94.1%
viability, T/C [10]: 89.2%
viability, T/C [11]: 97.8%
viability, T/C [12]: 79.6%
viability, T/C [13]: 85.2%
viability, T/C [14]: 86.5%
viability, T/C [15]: 72.9%
viability, T/C [16]: 82.3%
viability, T/C [17]: 91.6%
viability, T/C [18]: 86.6%
viability, T/C [19]: 69.3%
viability, T/C [20]: 68.7%
viability, T/C [21]: 60%
viability, T/C [22]: 63.9%
viability, T/C [23]: 87%
viability, T/C [24]: 82.2%
viability, T/C [25]: 69.9%
viability, T/C [26]: 61.5%
viability, T/C [27]: 62.4%
viability, T/C [28]: 57.9%
viability, T/C [29]: 88%
viability, T/C [30]: 82%
viability, T/C [31]: 58%
viability, T/C [32]: 59.5%
viability, T/C [33]: 69.5%
viability, T/C [34]: 72.8%
viability, T/C [35]: 94.8%
viability, T/C [36]: 91.5%

Structure (SMILES): Cn1ncnc1[C@H]1c2n[nH]c(=O)c3cc(F)cc(c23)N[C@@H]1c1ccc(F)cc1 + CN1CCN(c2cc(C(=O)Nc3cc4cc(-c5cnn(C)c5)ccc4cn3)ccn2)CC1
pIC50 (second compound 0.0316 µM): < 7.00
pIC50 (second compound 0.1 µM): < 7.00
pIC50 (second compound 0.316 µM): < 7.00
pIC50 (second compound 1 µM): > 9.50
pIC50 (second compound 3.16 µM): > 9.50
pIC50 (second compound 10 µM): > 9.50
viability, T/C (second compound 0.0316 µM, first compound 0.000316 µM): 92.9%
viability, T/C (second compound 0.0316 µM, first compound 0.001 µM): 112%
viability, T/C (second compound 0.0316 µM, first compound 0.00316 µM): 106%
viability, T/C (second compound 0.0316 µM, first compound 0.01 µM): 102%
viability, T/C [1]: 96%
viability, T/C [2]: 87.3%
viability, T/C (second compound 0.1 µM, first compound 0.000316 µM): 126%
viability, T/C (second compound 0.1 µM, first compound 0.001 µM): 114%
viability, T/C (second compound 0.1 µM, first compound 0.00316 µM): 113%
viability, T/C (second compound 0.1 µM, first compound 0.01 µM): 97.2%
viability, T/C [7]: 90%
viability, T/C [8]: 80.1%
viability, T/C (second compound 0.316 µM, first compound 0.000316 µM): 99.3%
viability, T/C (second compound 0.316 µM, first compound 0.001 µM): 96.3%
viability, T/C (second compound 0.316 µM, first compound 0.00316 µM): 85.8%
viability, T/C (second compound 0.316 µM, first compound 0.01 µM): 75.8%
viability, T/C [13]: 81.7%
viability, T/C [14]: 71.9%
viability, T/C (second compound 1 µM, first compound 0.000316 µM): 24%
viability, T/C (second compound 1 µM, first compound 0.001 µM): 22.9%
viability, T/C (second compound 1 µM, first compound 0.00316 µM): 19%
viability, T/C (second compound 1 µM, first compound 0.01 µM): 22.3%
viability, T/C [19]: 22.3%
viability, T/C [20]: 18.7%
viability, T/C (second compound 3.16 µM, first compound 0.000316 µM): 7.18%
viability, T/C (second compound 3.16 µM, first compound 0.001 µM): 10.9%
viability, T/C (second compound 3.16 µM, first compound 0.00316 µM): 8.25%
viability, T/C (second compound 3.16 µM, first compound 0.01 µM): 7.82%
viability, T/C [25]: 7.43%
viability, T/C [26]: 10.8%
viability, T/C (second compound 10 µM, first compound 0.000316 µM): 1.01%
viability, T/C (second compound 10 µM, first compound 0.001 µM): 2.31%
viability, T/C (second compound 10 µM, first compound 0.00316 µM): 1.8%
viability, T/C (second compound 10 µM, first compound 0.01 µM): 0.75%
viability, T/C [31]: 3.12%
viability, T/C [32]: 2.33%

Structure (SMILES): O=C(c1cc(Cc2n[nH]c(=O)c3ccccc23)ccc1F)N1CCN(C(=O)C2CC2)CC1 + CN1CCN(c2cc(C(=O)Nc3cc4cc(-c5cnn(C)c5)ccc4cn3)ccn2)CC1
pIC50 (second compound 0.0316 µM): < 5.00
pIC50 (second compound 0.1 µM): < 5.00
pIC50 (second compound 0.316 µM): < 5.00
pIC50 (second compound 1 µM): > 7.50
pIC50 (second compound 3.16 µM): > 7.50
pIC50 (second compound 10 µM): > 7.50
viability, T/C [1]: 120%
viability, T/C [2]: 112%
viability, T/C [3]: 112%
viability, T/C [4]: 125%
viability, T/C [5]: 102%
viability, T/C [6]: 84.1%
viability, T/C [7]: 122%
viability, T/C [8]: 105%
viability, T/C [9]: 109%
viability, T/C [10]: 98.7%
viability, T/C [11]: 95%
viability, T/C [12]: 88.4%
viability, T/C [13]: 96.8%
viability, T/C [14]: 82.2%
viability, T/C [15]: 87.2%
viability, T/C [16]: 85.5%
viability, T/C [17]: 83.7%
viability, T/C [18]: 74.8%
viability, T/C [19]: 26.2%
viability, T/C [20]: 24.4%
viability, T/C [21]: 23.4%
viability, T/C [22]: 22.4%
viability, T/C [23]: 28.3%
viability, T/C [24]: 25.2%
viability, T/C [25]: 10.1%
viability, T/C [26]: 11.2%
viability, T/C [27]: 9.98%
viability, T/C [28]: 8.62%
viability, T/C [29]: 9.42%
viability, T/C [30]: 12.3%
viability, T/C [31]: 1.86%
viability, T/C [32]: 1.82%
viability, T/C [33]: 2.14%
viability, T/C [34]: 2.42%
viability, T/C [35]: 3.13%
viability, T/C [36]: 2.42%

Structure (SMILES): C#Cc1c(F)ccc2cc(O)cc(-c3ncc4c(N5CC6CCC(C5)N6)nc(OCC56CCCN5CC(F)C6)nc4c3F)c12 (stereo not drawn) + CN1CCN(c2cc(C(=O)Nc3cc4cc(-c5cnn(C)c5)ccc4cn3)ccn2)CC1
pIC50 (second compound 0.0316 µM): 5.81
pIC50 (second compound 0.1 µM): 5.75
pIC50 (second compound 0.316 µM): 5.92
pIC50 (second compound 1 µM): > 7.50
pIC50 (second compound 3.16 µM): > 7.50
pIC50 (second compound 10 µM): > 7.50
viability, T/C [1]: 99.1%
viability, T/C [2]: 100%
viability, T/C [3]: 70.7%
viability, T/C [4]: 60.9%
viability, T/C [5]: 37.4%
viability, T/C [6]: 33.9%
viability, T/C [7]: 100%
viability, T/C [8]: 113%
viability, T/C [9]: 74.7%
viability, T/C [10]: 60.5%
viability, T/C [11]: 45.3%
viability, T/C [12]: 33.4%
viability, T/C [13]: 105%
viability, T/C [14]: 83.4%
viability, T/C [15]: 68.4%
viability, T/C [16]: 50.5%
viability, T/C [17]: 41.4%
viability, T/C [18]: 26.8%
viability, T/C [19]: 35.7%
viability, T/C [20]: 35.1%
viability, T/C [21]: 38%
viability, T/C [22]: 27.2%
viability, T/C [23]: 24.3%
viability, T/C [24]: 19%
viability, T/C [25]: 11.2%
viability, T/C [26]: 11.9%
viability, T/C [27]: 7.84%
viability, T/C [28]: 7.25%
viability, T/C [29]: 5.39%
viability, T/C [30]: 7.56%
viability, T/C [31]: 5.16%
viability, T/C [32]: 2.81%
viability, T/C [33]: 1.05%
viability, T/C [34]: 1.26%
viability, T/C [35]: 1.28%
viability, T/C [36]: 4.84%
